Results taken from patent US11827628B2, “Compositions and methods for inhibition of the JAK pathway” (Rigel Pharmaceuticals, Inc., priority 2005, dated 2023).
Read-outs that look alike come from different tables or passages of the source. Values belong to the compound of their own block, whether it stands above or below them.

What was measured:
[1] = system: IL-4 stimulated expression of CD23 in human Ramos B cells (JAK-1 and JAK-3); experiment: Assay for Ramos B-Cell Line Stimulated with IL-4 (CD23 upregulation, FACS); format: cell-based; conditions: read-out: IC50, Example 41
Summary of the method: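 Human Ramos B cells (5×10^4 per point, RPMI 5% serum) pre-incubated 1 h at 37 °C with compound or DMSO, then stimulated with IL-4 at 50 units/mL final for 20-24 h. CD23 upregulation measured by anti-CD23-PE staining and flow cytometry; IC50 derived.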

[2] = system: Primary human T-cells; experiment: Primary Human T-Cell Proliferation Assay Stimulated with IL-2 (CellTiter-Glo); format: cell-based; conditions: read-out: IC50, Example 42
Source text: The activity of the active compounds of the invention may further be characterized by assaying the effect of the 2,4-substituted pyrimidinediamine compounds described herein on the proliferative response of primary human T-cells. In this assay, primary human T-cells derived from peripheral blood and pre-activated through stimulation of the T-cell receptor and CD28, proliferate in culture in response to the cytokine Interleukin-2 (IL-2). This proliferative response is dependent on the activation of JAK1 and JAK3 tyrosine kinases, which phosphorylate and activate the transcription factor Stat-5. The primary human T-cells are incubated with the 2,4-substituted pyrimidinediamine compounds in the presence of IL-2 for 72 hours and at the assay endpoint intracellular ATP concentrations are measured to assess cell viability. A reduction in cell proliferation compared to control conditions is indicative of inhibition of the JAK kinase pathway. An exemplary assay of this type is described in greater detail in Example 42
Primary human T-cells derived from peripheral blood and pre-activated through stimulation of the T-cell receptor and CD28, proliferate in vitro in response to the cytokine Interleukin-2 (IL-2). This proliferative response is dependent on the activation of JAK-1 and JAK-3 tyrosine kinases, which phosphorylate and activate the transcription factor Stat-5.
Human primary T cells were prepared as follows. Whole blood was obtained from a healthy volunteer, mixed 1:1 with PBS, layered on to Ficoll Hypaque (Amersham Pharmacia Biotech, Piscataway, NJ, Catalog #17-1440-03) in 2:1 blood/PBS:ficoll ratio and centrifuged for 30 min at 4° C. at 1750 rpm. The lymphocytes at the serum: ficoll interface were recovered and washed twice with 5 volumes of PBS. The cells were resuspended in Yssel's medium (Gemini Bio-products, Woodland, CA, Catalog #400-103) containing 40 U/mL recombinant IL2 (R and D Systems, Minneapolis, MN, Catalog #202-IL (20 rig)) and seeded into a flask pre-coated with 1 μg/mL anti-CD3 (BD Pharmingen, San Diego, CA, Catalog #555336) and 5 μg/mL anti-CD28 (Immunotech, Beckman Coulter of Brea CA, Catalog #IM1376). The primary T-cells were stimulated for 3-4 days, then transferred to a fresh flask and maintained in RPMI with 10% FBS and 40 U/mL IL-2.
Primary T-cells were washed twice with PBS to remove the IL-2 and resuspended in Yssel's medium at 2×10^6 cells/mL. 50 μL of cell suspension containing 80 U/mL IL-2 was added to each well of a flat bottom 96 well black plate. For the unstimulated control, IL-2 was omitted from the last column on the plate. Compounds were serially diluted in dimethyl sulfoxide (DMSO, 99.7% pure, cell culture tested, Sigma-Aldrich, St. Louis, MO, Catalog No. D2650) from 5 mM in 3-fold dilutions, and then diluted 1:250 in Yssel's medium. 50 μL of 2× compound was added per well in duplicate and the cells were allowed to proliferate for 72 hours at 37° C.
Proliferation was measured using CellTiter-Glo® Luminescent Cell Viability Assay (Promega), which determines the number of viable cells in culture based on quantitation of the ATP present, as an indicator of metabolically active cells. The substrate was thawed and allowed to come to room temperature. After mixing the Cell Titer-Glo reagent and diluent together, 100 μL was added to each well. The plates were mixed on an orbital shaker for two minutes to induce lysis and incubated at room temperature for an additional ten minutes to allow the signal to equilibrate. Detection was performed using a Wallac Victor2 1420 multilabel counter purchased from Perkin Elmer, Shelton, CT The IC50 calculated based on the results of this assay are provided in TABLE XII.

[3] = Homo sapiens, Ramos, Ramos B-cell line stimulated with IL-4, CD23 expression by FACS
[4] = Homo sapiens, T-cell, primary human T-cell proliferation stimulated with IL-2
[5] = Ramos B-cell line stimulated with IL-4, CD23 expression by FACS
[6] = primary human T-cell proliferation stimulated with IL-2
[7] = Homo sapiens, Ramos, Ramos B cells stimulated with IL-4, CD23 expression by FACS
[8] = Homo sapiens, T-cell, primary human T-cells stimulated with IL-2, proliferation
[9] = Ramos B cells stimulated with IL-4, CD23 expression by FACS
[10] = primary human T-cells stimulated with IL-2, proliferation

Compound: N#CCOc1ccc(Nc2nc(Nc3ccc(S(N)(=O)=O)cc3)ncc2F)cc1 [Compound I-16, N2-(4-Aminosulfonyl)phenyl-N4-(4-cyanomethoxy)phenyl-5-fluoro-2,4-pyrimidinediamine]
IC50 [1, 5]: 124 nM
IC50 [2, 6]: 436 nM

Compound: NS(=O)(=O)c1ccc(Nc2ncc(F)c(Nc3ccc(CCCCF)cc3)n2)cc1 [VI-91, N2-(4-Aminosulfonylphenyl)-5-fluoro-N4-[4-(4-fluorobutyl)phenyl]-2,4-pyrimidinediamine]
IC50 [1, 7]: 221 nM
IC50 [2, 8]: 1230 nM

Compound: C#CCOC(=O)NCc1ccc(Nc2nc(Nc3ccc(C)c(S(N)(=O)=O)c3)ncc2F)cc1 [VI-73, N2-(3-Aminosulfonyl-4-methylphenyl)-5-fluoro-N4-{4-[(prop-2-ynyloxy)carbonylaminomethyl]phenyl}-2,4-pyrimidinediamine]
IC50 [1, 7]: 251 nM
IC50 [2, 8]: 2010 nM

Compound: Cc1ccc(Nc2ncc(F)c(Nc3cccc(S(=O)(=O)N(C)C)c3)n2)cc1S(N)(=O)=O [IV-10, N2-(3-Aminosulfonyl-4-methylphenyl)-5-fluoro-N4-[3-(N,N-dimethylaminosulfonyl)phenyl]-2,4-pyrimidinediamine]
IC50 [1, 7]: 135 nM
IC50 [2, 8]: 714 nM

Compound: NS(=O)(=O)c1cc(Nc2ncc(F)c(Nc3ccc(C(F)(F)F)c(Cl)c3)n2)ccc1Cl [VI-44, N2-(3-Aminosulfonyl-4-chlorophenyl)-N4-(3-chloro-4-trifluoromethyl-phenyl)-5-fluoro-2,4-pyrimidinediamine]
IC50 [1, 7]: 429 nM
IC50 [2, 8]: 7310 nM

Compound: N2-(3-Aminosulfonyl-4-methoxy-5-methylphenyl)-N4-(4-benzylphenyl)-5-fluoro-2,4-pyrimidinediamine [III-65]
IC50 [1, 5]: 209 nM
IC50 [2, 6]: 936 nM

Compound: NS(=O)(=O)c1ccc(Nc2ncc(F)c(Nc3ccc(Oc4cccnc4)cc3)n2)cc1 [II-14, N2-(4-Aminosulfonylphenyl)-5-fluoro-N4-[4-(3-pyridyloxy)phenyl]-2,4-pyrimidinediamine]
IC50 [1, 3]: 46.9 nM
IC50 [2, 4]: 579 nM

Compound: COc1cc(Nc2ncc(F)c(Nc3cccc(OCC#N)c3)n2)ccc1S(N)(=O)=O [Compound I-7, N2-(4-Aminosulfonyl-3-methoxy)phenyl-N4-(3-cyanomethoxy)phenyl-5-fluoro-2,4-pyrimidinediamine]
IC50 [1, 5]: 120 nM
IC50 [2, 6]: 502 nM

Compound: Cc1cc(COc2ccc(Nc3nc(Nc4ccc(Cl)c(S(N)(=O)=O)c4)ncc3F)cc2)no1 [Compound I-220, N2-(3-Aminosulfonyl-4-chlorophenyl)-5-fluoro-N4-[4-(5-methylisoxazol-3-yl)methyleneoxyphenyl]-2,4-pyrimidinediamine]
IC50 [1, 5]: 121 nM
IC50 [2, 6]: 1070 nM

Compound: COc1ccc(Nc2nc(Nc3ccc(Cl)c(S(=O)(=O)NC(C)=O)c3)ncc2F)cc1Cl [VI-12, N2-[3-(N-Acetyl)aminosulfonyl-4-chlorophenyl]-N4-(3-chloro-4-methoxyphenyl)-5-fluoro-2,4-pyrimidinediamine]
IC50 [1, 7]: 146 nM
IC50 [2, 8]: 1310 nM

Compound: Cc1ccc(Nc2ncc(F)c(Nc3ccc(C(C)(C)C)cc3)n2)cc1S(N)(=O)=O [VI-36, N2-(3-Aminosulfonyl-4-methylphenyl)-N4-(4-tert-butylphenyl)-5-fluoro-2,4-pyrimidinediamine]
IC50 [1, 7]: 374 nM
IC50 [2, 8]: 4500 nM

Compound: N#Cc1cc2cc(Nc3nc(Nc4ccc(Cl)c(S(N)(=O)=O)c4)ncc3F)ccc2o1 [IX-21]
IC50 [1, 9]: 271 nM
IC50 [2, 10]: 2740 nM

Compound: NS(=O)(=O)c1ccc(Nc2ncc(F)c(Nc3ccc(Cl)c(Cl)c3)n2)cc1 [VI-109, N2-(4-Aminosulfonylphenyl)-N4-(3,4-dichlorophenyl)-5-fluoro-2,4-pyrimidinediamine]
IC50 [1, 7]: 136 nM
IC50 [2, 8]: 2870 nM

Compound: CNC(=O)COc1ccc(Nc2nc(Nc3ccc(C)c(S(N)(=O)=O)c3)ncc2C)cc1Cl [Compound I-151, N2-(3-Aminosulfonyl-4-methylphenyl)-N4-(3-chloro-4-methylaminocarbonylmethoxyphenyl)-5-methyl-2,4-pyrimidinediamine]
IC50 [1, 3]: 61.9 nM
IC50 [2, 4]: 78.3 nM

Continued, in another order:

IC50 [1, 3]: 169 nM
Compound: NS(=O)(=O)c1ccc(Nc2ncc(F)c(NCCc3ccc(-c4ccncc4)cc3)n2)cc1 [III-79, N2-(4-Aminosulfonylphenyl)-5-fluoro-N4-[4-(4-pyridinyl)phenethyl]-2,4-pyrimidinediamine]
IC50 [2, 4]: 967 nM

IC50 [1, 9]: 575 nM
Compound: N2-(3-Aminosulfonyl-4-methylphenyl)-N4-(4-ethylaminocarbonylaminomethylphenyl)-5-fluoro-2,4-pyrimidinedia [III-121]
IC50 [2, 10]: 1020 nM

IC50 [1, 3]: 3160 nM
Compound: NS(=O)(=O)c1cccc(Nc2ncc(F)c(Nc3ccc(Cc4cc[n+]([O-])cc4)cc3)n2)c1 [III-80, N2-(3-Aminosulfonylphenyl)-5-fluoro-N4-[4-(1-oxido-4-pyridylmethyl)phenyl]-2,4-pyrimidinediamine]
IC50 [2, 4]: 844 nM

IC50 [1, 3]: 211 nM
Compound: C=CC(=O)NCc1ccc(Nc2nc(Nc3ccc(C)c(S(N)(=O)=O)c3)ncc2F)cc1 [III-46, N4-(4-Acrylamidomethylphenyl)-N2-(3-aminosulfonyl-4-methylphenyl)-5-fluoro-2,4-pyrimidinediamine]
IC50 [2, 4]: 1050 nM

IC50 [1, 9]: 173 nM
Compound: CCNC(=O)NCCc1ccc(Nc2nc(Nc3cccc(S(N)(=O)=O)c3)ncc2F)cc1 [III-123, N2-(3-aminosulfonyl)phenyl-N4-[4-(2-ethylaminocarbonylamino)ethyl]phenyl-5-fluoro-2,4-pyrimidinediamine]
IC50 [2, 10]: 1390 nM

IC50 [1, 9]: 240 nM
Compound: Cc1ccc(Nc2ncc(F)c(Nc3ccc(Cn4cncn4)cc3)n2)cc1S(N)(=O)=O [III-101, N2-(3-Aminosulfonyl-4-methylphenyl)-5-fluoro-N4-{4-[1-(1,2,4-thazolyl)methyl]phenyl}-2,4-pyrimidinediamine]
IC50 [2, 10]: 446 nM

IC50 [1, 9]: 117 nM
Compound: CNS(=O)(=O)c1cc(Nc2ncc(F)c(Nc3ccc(Cn4ccnn4)cc3)n2)ccc1C [III-98, 5-Fluoro-N2-[3-(N-methylaminosulfony)-4-methylphenyl]-N4-{4-[1-(1,2,3-thazolyl)methyl]phenyl}-2,4-pyrimidinediamine]
IC50 [2, 10]: 457 nM

IC50 [1, 3]: 150 nM
Compound: CNC(=O)OCCc1ccc(Nc2nc(Nc3ccc(C)c(S(N)(=O)=O)c3)ncc2F)cc1 [III-59, N2-(3-Aminosulfonyl-4-methylphenyl)-5-fluoro-N4-{4-[2-(methylaminocarbonyloxy)ethyl]phenyl}-2,4-pyrimidinediamine]
IC50 [2, 4]: 458 nM

IC50 [1, 7]: 206 nM
Compound: NS(=O)(=O)c1cc(Nc2ncc(F)c(Nc3cccc4cccnc34)n2)ccc1F [VII-79, N2-(3-Aminosulfonyl-4-fluorophenyl)-5-fluoro-N4-(quinolin-8-yl)-2,4-pyrimidinediamine]
IC50 [2, 8]: 3200 nM

IC50 [1, 7]: 369 nM
Compound: NS(=O)(=O)c1cccc(Nc2ncc(F)c(Nc3cnc4ccccc4c3)n2)c1 [VII-66, N2-(3-Aminosulfonylphenyl)-5-fluoro-N4-(quinolin-3-yl)-2,4-pyrimidinediamine]
IC50 [2, 8]: 2870 nM
